Inhibition data for eleven molecules are collected here from ChEMBL document CHEMBL6182898, “Design, synthesis and bioevaluation of novel hydrazide derivatives as enhancers of immunotherapy and DNA-damage response in antitumor therapy” (Eur J Med Chem, 2025).

The first test concerns SK-OV-3. Kind of test: cells. The format is functional. The following applies: Homo sapiens, time 72 hrs.
For orientation: inhibition means the percentage by which the read-out fell short of the control. The low end stands for a weak effect, the high end for a strong effect. In the case of `CCCNNC(=O)CCCCCNC(=O)c1cnc(-c2ccc(OC(F)(F)F)cc2)s1`, the inhibition at 10 µM was < 50%.

For `C=CCNNC(=O)CCCCCCNC(=O)c1cnc(-c2ccc(NC(=O)OC(C)(C)C)cc2)s1`, the inhibition at 10 µM is 64.6%.

In the case of `CCCNNC(=O)CCCCCCNC(=O)c1cnc(-c2cccc(C)c2)s1`, the inhibition at 10 µM is < 50%.

With `CCCNNC(=O)CCCCCNC(=O)c1cnc(-c2ccc3ccccc3c2)s1`, the inhibition at 10 µM was < 50%.

As for `CCCNNC(=O)CCCCCNC(=O)c1cnc(-c2ccc(NC(=O)OC(C)(C)C)cc2)s1`, the inhibition at 10 µM was < 50%.

Molecule `CCCCCCCCCNNC(=O)CCCCCCNC(=O)c1cnc(-c2ccc(NC(=O)OC(C)(C)C)cc2)s1` showed an inhibition at 10 µM of 45%.

Take `CC(C)=CCCC(C)CNNC(=O)CCCCCCNC(=O)c1cnc(-c2ccc(NC(=O)OC(C)(C)C)cc2)s1` (stereo not given): 10 µM produced 57.2% inhibition.

Consider `CCCNNC(=O)CCCCCNC(=O)c1cnc(-c2cccc(OC)c2)s1`, for which the inhibition at 10 µM was < 50%.

As for `CC(C)(C)OC(=O)Nc1ccc(-c2ncc(C(=O)NCCCCCCC(=O)NNCC3CC3)s2)cc1`, 10 µM produced 57.5% inhibition.

In the case of `CC(C)CNNC(=O)CCCCCCNC(=O)c1cnc(-c2ccc(NC(=O)OC(C)(C)C)cc2)s1`, at 10 µM the inhibition was 39.2%.

For `CCCNNC(=O)CCCCCNC(=O)c1cnc(-c2ccc(F)cc2F)s1`, the inhibition at 10 µM was < 50%.

The next test deals with 4T1. Put plainly: cells. It is filed as functional. The following applies: Mus musculus, time 72 hrs.
As to `CCCNNC(=O)CCCCCNC(=O)c1cnc(-c2ccc(OC(F)(F)F)cc2)s1`, at 10 µM the inhibition was 31.9%.

As for `C=CCNNC(=O)CCCCCCNC(=O)c1cnc(-c2ccc(NC(=O)OC(C)(C)C)cc2)s1`, the inhibition at 10 µM stood at 61.2%.

In the case of `CCCNNC(=O)CCCCCCNC(=O)c1cnc(-c2cccc(C)c2)s1`, the inhibition at 10 µM was < 20%.

As to `CCCNNC(=O)CCCCCNC(=O)c1cnc(-c2ccc3ccccc3c2)s1`, the inhibition at 10 µM was < 20%.

`CCCNNC(=O)CCCCCNC(=O)c1cnc(-c2ccc(NC(=O)OC(C)(C)C)cc2)s1`: the inhibition at 10 µM amounted to 27.1%.

Turning to `CCCCCCCCCNNC(=O)CCCCCCNC(=O)c1cnc(-c2ccc(NC(=O)OC(C)(C)C)cc2)s1`, the inhibition at 10 µM was < 20%.

For the molecule `CC(C)=CCCC(C)CNNC(=O)CCCCCCNC(=O)c1cnc(-c2ccc(NC(=O)OC(C)(C)C)cc2)s1` (stereo not given), 10 µM produced 40.5% inhibition.

Consider `CCCNNC(=O)CCCCCNC(=O)c1cnc(-c2cccc(OC)c2)s1`, for which the inhibition at 10 µM was < 20%.

Molecule `CC(C)(C)OC(=O)Nc1ccc(-c2ncc(C(=O)NCCCCCCC(=O)NNCC3CC3)s2)cc1` came in with an inhibition at 10 µM of 21.4%.

The molecule `CC(C)CNNC(=O)CCCCCCNC(=O)c1cnc(-c2ccc(NC(=O)OC(C)(C)C)cc2)s1` had an inhibition at 10 µM of 23.9%.

As for `CCCNNC(=O)CCCCCNC(=O)c1cnc(-c2ccc(F)cc2F)s1`, the inhibition at 10 µM stood at 21.7%.

Another test concerns HCT-116. Kind of test: cells. The format is functional. The settings on record: Homo sapiens, time 72 hrs.
On to `CCCNNC(=O)CCCCCNC(=O)c1cnc(-c2ccc(OC(F)(F)F)cc2)s1`, for which the inhibition at 10 µM was 62.9%.

The molecule `C=CCNNC(=O)CCCCCCNC(=O)c1cnc(-c2ccc(NC(=O)OC(C)(C)C)cc2)s1` came in with an inhibition at 10 µM of 58.2%.

In turn, `CCCNNC(=O)CCCCCCNC(=O)c1cnc(-c2cccc(C)c2)s1` showed an inhibition at 10 µM of 61.7%.

Take `CCCNNC(=O)CCCCCNC(=O)c1cnc(-c2ccc3ccccc3c2)s1`: testing at 10 µM gave an inhibition of 58.5%.

Regarding `CCCNNC(=O)CCCCCNC(=O)c1cnc(-c2ccc(NC(=O)OC(C)(C)C)cc2)s1`, at 10 µM the inhibition was 53.6%.

`CCCCCCCCCNNC(=O)CCCCCCNC(=O)c1cnc(-c2ccc(NC(=O)OC(C)(C)C)cc2)s1` yielded an inhibition at 10 µM of 59.7%.

`CC(C)=CCCC(C)CNNC(=O)CCCCCCNC(=O)c1cnc(-c2ccc(NC(=O)OC(C)(C)C)cc2)s1` (stereo not given): the inhibition at 10 µM was determined as 58.7%.

`CCCNNC(=O)CCCCCNC(=O)c1cnc(-c2cccc(OC)c2)s1`: the inhibition at 10 µM was < 50%.

`CC(C)(C)OC(=O)Nc1ccc(-c2ncc(C(=O)NCCCCCCC(=O)NNCC3CC3)s2)cc1`: 10 µM produced 85.8% inhibition.

For the molecule `CC(C)CNNC(=O)CCCCCCNC(=O)c1cnc(-c2ccc(NC(=O)OC(C)(C)C)cc2)s1`, the inhibition at 10 µM came to 59%.

For the molecule `CCCNNC(=O)CCCCCNC(=O)c1cnc(-c2ccc(F)cc2F)s1`, the inhibition at 10 µM stood at 62.9%.

The subject of the next test is B16-F10. Kind of test: cells. The following applies: Mus musculus, time 72 hrs. It is filed as functional.
In the case of `CCCNNC(=O)CCCCCNC(=O)c1cnc(-c2ccc(OC(F)(F)F)cc2)s1`, the inhibition at 10 µM is < 50%.

`C=CCNNC(=O)CCCCCCNC(=O)c1cnc(-c2ccc(NC(=O)OC(C)(C)C)cc2)s1` returned an inhibition at 10 µM of 53.5%.

Take `CCCNNC(=O)CCCCCCNC(=O)c1cnc(-c2cccc(C)c2)s1`: the inhibition at 10 µM is < 50%.

`CCCNNC(=O)CCCCCNC(=O)c1cnc(-c2ccc3ccccc3c2)s1`: the inhibition at 10 µM was < 50%.

With `CCCNNC(=O)CCCCCNC(=O)c1cnc(-c2ccc(NC(=O)OC(C)(C)C)cc2)s1`, the inhibition at 10 µM was < 50%.

As for `CCCCCCCCCNNC(=O)CCCCCCNC(=O)c1cnc(-c2ccc(NC(=O)OC(C)(C)C)cc2)s1`, the inhibition at 10 µM is < 50%.

The molecule `CC(C)=CCCC(C)CNNC(=O)CCCCCCNC(=O)c1cnc(-c2ccc(NC(=O)OC(C)(C)C)cc2)s1` (stereo not given) gave an inhibition at 10 µM of 66.8%.

For the molecule `CCCNNC(=O)CCCCCNC(=O)c1cnc(-c2cccc(OC)c2)s1`, the inhibition at 10 µM was < 50%.

As for `CC(C)(C)OC(=O)Nc1ccc(-c2ncc(C(=O)NCCCCCCC(=O)NNCC3CC3)s2)cc1`, the inhibition at 10 µM worked out at 52.1%.

For the molecule `CC(C)CNNC(=O)CCCCCCNC(=O)c1cnc(-c2ccc(NC(=O)OC(C)(C)C)cc2)s1`, the inhibition at 10 µM turned out to be 51%.

`CCCNNC(=O)CCCCCNC(=O)c1cnc(-c2ccc(F)cc2F)s1`: the inhibition at 10 µM was < 50%.

The test system of the next test is K562. Kind of test: cells. The format is functional. The settings on record: Homo sapiens, time 72 hrs.
Take `CCCNNC(=O)CCCCCNC(=O)c1cnc(-c2ccc(OC(F)(F)F)cc2)s1`: the inhibition at 10 µM came out at 69.5%.

`C=CCNNC(=O)CCCCCCNC(=O)c1cnc(-c2ccc(NC(=O)OC(C)(C)C)cc2)s1` had an inhibition at 10 µM of 63.7%.

Consider `CCCNNC(=O)CCCCCCNC(=O)c1cnc(-c2cccc(C)c2)s1`, for which the inhibition at 10 µM was < 50%.

`CCCNNC(=O)CCCCCNC(=O)c1cnc(-c2ccc3ccccc3c2)s1` gave an inhibition at 10 µM of 59.8%.

The molecule `CCCNNC(=O)CCCCCNC(=O)c1cnc(-c2ccc(NC(=O)OC(C)(C)C)cc2)s1` yielded an inhibition at 10 µM of 68.9%.

As to `CCCCCCCCCNNC(=O)CCCCCCNC(=O)c1cnc(-c2ccc(NC(=O)OC(C)(C)C)cc2)s1`, the inhibition at 10 µM turned out to be 55.2%.

In turn, `CC(C)=CCCC(C)CNNC(=O)CCCCCCNC(=O)c1cnc(-c2ccc(NC(=O)OC(C)(C)C)cc2)s1` (stereo not given) gave an inhibition at 10 µM of 53.5%.

Take `CCCNNC(=O)CCCCCNC(=O)c1cnc(-c2cccc(OC)c2)s1`: the inhibition at 10 µM was < 50%.

In turn, `CC(C)(C)OC(=O)Nc1ccc(-c2ncc(C(=O)NCCCCCCC(=O)NNCC3CC3)s2)cc1` displayed an inhibition at 10 µM of 71.3%.

`CC(C)CNNC(=O)CCCCCCNC(=O)c1cnc(-c2ccc(NC(=O)OC(C)(C)C)cc2)s1` registered an inhibition at 10 µM of 55.9%.

As for `CCCNNC(=O)CCCCCNC(=O)c1cnc(-c2ccc(F)cc2F)s1`, the inhibition at 10 µM was determined as 59.8%.
